Like-named read-outs stand apart in the source and are kept apart here.
Key:
[1] = Bioavailability study in dog; assay type: in vivo; details: for half-life / AUC(0-inf) / Cmax / Tmax / bioavailability / Vd / clearance: plasma; for bioavailability: 2.5 mg/kg p.o. vs 0.5 mg/kg i.v.
Procedure: A bioavailability study was also conducted in dogs. […] The i.v. dose, which was given 7 days later, was chosen as 0.5 mg/kg in order to prevent observable CNS effects. The difference between the p.o. and the i.v. dose might overestimate the bioavailability to a certain extent. […] T½ is in the same range in the two dogs and after both p.o. and i.v. administration (1.4-1.7 h).

[2] = test system: plasma protein; assay: Plasma protein binding by equilibrium dialysis, rat; assay type: in vitro ADME
Procedure: (§1) The plasma protein binding was tested in rat, mouse, dog and human plasma by equilibrium dialysis. The plasma protein binding of this compound is remarkably low (Table 24).

[3] = test system: NMRI mice; assay: Mouse stress-induced hyperthermia test (mSIH); assay type: in vivo
Procedure: FIG. 14: Stress-induced hyperthermia. When mice are confronted with a stress-full event, the body temperature rises.
Compound (I) was tested in three widely used behavioural screens for predicting anxiolytic effects in the clinic: the mouse marble burying test (mMB), mouse zero maze (mZM) and mouse stress-induced hyperthermia test (mSIH).

[4] = 14-day repeat-dose study in NMRI mice; assay type: in vivo, mouse
Procedure: In a 14-day repeat-dose study 4 groups of 8 male and 8 female NMRI mice were treated daily with compound (I) at doses of 15, 30, and 60 mg/kg p.o. (Groups 2, 3 and 4), or vehicle, 5% glucose s.c. (Group 1). A satellite group 90 mg/kg p.o. (group 5) was conducted accordingly to increase the exposure and efficacy.

[5] = target: CYP1A2 (Homo sapiens, UniProt P05177); assay: CYP450 inhibition, cocktail of selective substrates, 1A2; assay type: in vitro ADME; details: CYP 1A2, Phenacetin to Paracetamol; read-out: IC50 of compound (I)
CYP1A2, sequence (P05177 whole entry): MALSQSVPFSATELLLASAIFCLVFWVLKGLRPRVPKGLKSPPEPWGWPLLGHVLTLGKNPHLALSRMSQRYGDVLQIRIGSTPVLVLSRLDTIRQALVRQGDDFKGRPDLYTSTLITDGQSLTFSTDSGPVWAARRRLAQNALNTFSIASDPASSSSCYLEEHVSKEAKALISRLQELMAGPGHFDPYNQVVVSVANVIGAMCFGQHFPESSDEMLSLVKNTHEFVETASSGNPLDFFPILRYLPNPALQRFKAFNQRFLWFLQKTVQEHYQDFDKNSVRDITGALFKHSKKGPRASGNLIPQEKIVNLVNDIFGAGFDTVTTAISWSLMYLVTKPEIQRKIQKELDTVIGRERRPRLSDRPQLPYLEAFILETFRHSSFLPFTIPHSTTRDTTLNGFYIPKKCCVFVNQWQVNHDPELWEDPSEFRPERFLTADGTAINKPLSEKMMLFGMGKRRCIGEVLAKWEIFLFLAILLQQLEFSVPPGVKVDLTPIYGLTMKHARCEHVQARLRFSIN
Procedure: (§2) Compound (I) was tested for CYP450 inhibition using a cocktail of selective substrates. […] This might be addressed later in a clinical study.

[6] = test system: plasma protein; assay: Plasma protein binding by equilibrium dialysis, human; assay type: in vitro ADME
Procedure: as §1

[7] = Exposure and tissue distribution after 14 days repeat dosing, rat; assay type: in vivo; details: for concentration at 2 h / Kp at 2 h: rat, sc, 2 h post last dose
Procedure: Single time point data is available from two 14 days repeat dose studies in mice and rats dosed to both sexes. The three low doses were performed together as one study and the top dose was performed at another occasion as a satellite study.
Samples were taken 2 h post last dose.
Plasma, brain and liver were taken 2 h post last dose.

[8] = target: CYP 2C19 (Homo sapiens, UniProt P33261); assay: CYP450 inhibition, cocktail of selective substrates, 2C19; assay type: in vitro ADME; details: CYP 2C19, Omeprazole to 5-hydroxyomeprazole; read-out: IC50 of compound (I)
CYP 2C19, sequence (P33261 whole entry): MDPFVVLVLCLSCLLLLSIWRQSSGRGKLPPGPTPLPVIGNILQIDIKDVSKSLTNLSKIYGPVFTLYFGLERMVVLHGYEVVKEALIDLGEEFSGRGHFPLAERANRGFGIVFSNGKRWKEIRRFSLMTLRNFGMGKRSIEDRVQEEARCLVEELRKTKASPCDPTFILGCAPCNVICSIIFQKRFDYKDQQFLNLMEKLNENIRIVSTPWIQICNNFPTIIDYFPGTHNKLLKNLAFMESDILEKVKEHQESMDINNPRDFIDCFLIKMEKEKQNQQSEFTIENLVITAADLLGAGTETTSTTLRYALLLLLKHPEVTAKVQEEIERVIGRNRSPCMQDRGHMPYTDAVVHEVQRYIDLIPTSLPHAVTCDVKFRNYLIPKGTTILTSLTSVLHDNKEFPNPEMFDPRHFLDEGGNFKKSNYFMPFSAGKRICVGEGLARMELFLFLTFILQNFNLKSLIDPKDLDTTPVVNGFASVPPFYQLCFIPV
Procedure: as §2

[9] = in vivo; details: male, Wistar, rat, plasma
[10] = target: NA transporter (Rattus norvegicus, UniProt Q63380); assay: ^3H-uptake rat, NA transporter; assay type: biochemical
NA transporter, sequence (Q63380 1-617): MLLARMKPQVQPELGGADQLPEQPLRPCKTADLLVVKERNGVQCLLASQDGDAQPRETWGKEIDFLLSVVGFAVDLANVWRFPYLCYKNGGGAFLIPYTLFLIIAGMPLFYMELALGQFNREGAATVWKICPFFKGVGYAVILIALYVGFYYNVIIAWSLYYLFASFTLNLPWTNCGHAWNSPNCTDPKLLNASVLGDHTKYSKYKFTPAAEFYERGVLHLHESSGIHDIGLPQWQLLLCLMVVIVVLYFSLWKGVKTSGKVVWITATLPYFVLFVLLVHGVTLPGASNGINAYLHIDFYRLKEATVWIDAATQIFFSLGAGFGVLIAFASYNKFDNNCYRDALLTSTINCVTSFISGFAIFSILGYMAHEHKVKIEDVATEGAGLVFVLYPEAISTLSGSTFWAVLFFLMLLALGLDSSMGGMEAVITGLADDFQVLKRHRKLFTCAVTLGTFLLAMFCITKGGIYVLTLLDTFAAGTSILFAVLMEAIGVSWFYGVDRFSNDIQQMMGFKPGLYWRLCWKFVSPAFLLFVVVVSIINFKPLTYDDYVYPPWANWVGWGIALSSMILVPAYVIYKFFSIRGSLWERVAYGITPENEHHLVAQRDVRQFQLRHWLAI
Excerpt: (§3) Compound (I) has been characterized as a monoamine reuptake inhibitor, based on the profile in a series of functional assays (Table 2).

[11] = target: 5-HT transporter (Homo sapiens, UniProt P31645); assay: ^3H-uptake human, 5-HT transporter; assay type: biochemical
5-HT transporter, sequence (P31645 whole entry): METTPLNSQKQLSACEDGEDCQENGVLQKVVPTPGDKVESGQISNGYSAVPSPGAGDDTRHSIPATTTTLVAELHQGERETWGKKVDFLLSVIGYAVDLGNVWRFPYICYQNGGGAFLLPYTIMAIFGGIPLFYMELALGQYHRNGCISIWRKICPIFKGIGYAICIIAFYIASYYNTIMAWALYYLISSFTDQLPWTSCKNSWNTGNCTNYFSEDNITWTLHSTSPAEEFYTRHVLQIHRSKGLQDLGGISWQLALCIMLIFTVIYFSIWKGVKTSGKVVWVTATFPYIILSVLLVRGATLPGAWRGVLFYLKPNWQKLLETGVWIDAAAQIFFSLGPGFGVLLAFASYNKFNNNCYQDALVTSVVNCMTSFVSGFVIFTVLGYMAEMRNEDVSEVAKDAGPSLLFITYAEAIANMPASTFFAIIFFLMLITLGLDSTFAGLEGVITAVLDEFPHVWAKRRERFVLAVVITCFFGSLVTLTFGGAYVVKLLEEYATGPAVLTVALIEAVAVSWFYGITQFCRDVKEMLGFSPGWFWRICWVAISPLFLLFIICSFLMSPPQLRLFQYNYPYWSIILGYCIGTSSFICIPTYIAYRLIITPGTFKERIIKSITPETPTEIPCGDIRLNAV
Excerpt: as §3

[12] = po, Female beagle dog, 2.5 mg/kg p.o.
[13] = po, Male beagle dog, 2.5 mg/kg p.o.
[14] = 60 mg/kg p.o. 14 days (Group 4)
[15] = 90 mg/kg p.o. 14 days (Group 5)

O=c1ccc2ccc(O[C@@H]3C[C@H]4CC[C@@H](C3)N4)cc2o1 [Compound (I), exo-7-(8-aza-bicyclo[3.2.1]oct-3-yloxy)-chromen-2-one]
half-life ([1]; both sexes, beagle, dog, other: p.o. and i.v., the two dogs, after both p.o. and i.v. administration, read-out: T½): 1.4 to 1.7 h | CNS effects ([1]; dogs, after 2.5 mg/kg p.o.): some CNS effects were observed | AUC(0-inf) ([1]; iv, Female beagle dog, 0.5 mg/kg i.v., read-out: AUC(0-∞) i.v.): 194 ng·h/mL | half-life ([1]; iv, Female beagle dog, 0.5 mg/kg i.v., read-out: T½ i.v. (converted)): 1.4 h | AUC(0-inf) ([1]; iv, Male beagle dog, 0.5 mg/kg i.v., read-out: AUC(0-∞) i.v.): 343 ng·h/mL | half-life ([1]; iv, Male beagle dog, 0.5 mg/kg i.v., read-out: T½ i.v. (converted)): 1.6 h | Cmax [1, 12]: 339 ng/mL | Tmax [1, 12]: 0.5 h | bioavailability ([1]; po, Female beagle dog): 114% | AUC(0-inf) ([1]; po, Female beagle dog, 2.5 mg/kg p.o., read-out: AUC(0-∞) p.o.): 1110 ng·h/mL | half-life ([1]; po, Female beagle dog, 2.5 mg/kg p.o., read-out: T½ p.o. (converted)): 1.6 h | Cmax [1, 13]: 418 ng/mL | Tmax [1, 13]: 0.5 h | bioavailability ([1]; po, Male beagle dog): 84% | AUC(0-inf) ([1]; po, Male beagle dog, 2.5 mg/kg p.o., read-out: AUC(0-∞) p.o.): 1440 ng·h/mL | half-life ([1]; po, Male beagle dog, 2.5 mg/kg p.o., read-out: T½ p.o. (converted)): 1.7 h | Vd ([1]; Female beagle dog): 5 L/kg | clearance ([1]; Female beagle dog): 43.3 mL/min/kg | Vd ([1]; Male beagle dog): 3.4 L/kg | clearance ([1]; Male beagle dog): 25 mL/min/kg | fraction unbound at 81 ng/ml ([2]; 81 ng/ml): 0.566 | fraction unbound at 271 ng/ml ([2]; 271 ng/ml): 0.65 | fraction unbound at 813 ng/ml ([2]; 813 ng/ml): 0.582 | fraction unbound at 2710 ng/ml ([2]; 2710 ng/ml): 0.635 | Body temperature in resting conditions ([3]; 0.1, 1 and 3 mg/kg per oral, NMRI mice): did not change body temperature in resting conditions | Stress-induced temperature rise ([3]; 0.1, 1 and 3 mg/kg per oral, NMRI mice, all three doses): temperature rise was significantly prevented | MED ([3]; mSIH, p.o., −60 min): 0.3 mg/kg | Activity [4, 14]: increase in activity in both male and female | Body weight [4, 14]: significant decrease in body weight in the female group | Relative liver weight [4, 14]: significant decrease in relative liver weight in both sexes | Activity [4, 15]: increase in activity in both male and female | Body weight and relative liver weight [4, 15]: significant decrease in body weight and in relative liver weight in both sexes | Macroscopic findings at termination ([4]; 15 up to 90 mg/kg/day p.o. 14 days): no treatment-related macroscopic findings | IC50 [5]: 3500 nM | fraction unbound at 2710 ng/ml [6]: 0.714 | concentration at 2 h ([7]; Wistar, brain, Female rats, 5 mg/kg s.c. 14 days, read-out: Brain concentration): 468 ng/g | concentration at 2 h ([7]; Wistar, brain, Female rats, 10 mg/kg s.c. 14 days, read-out: Brain concentration): 1020 ng/g | concentration at 2 h ([7]; Wistar, brain, Female rats, 15 mg/kg s.c. 14 days, read-out: Brain concentration): 1580 ng/g | concentration at 2 h ([7]; Wistar, brain, Female rats, 25 mg/kg s.c. 14 days, read-out: Brain concentration): 2080 ng/g | concentration at 2 h ([7]; Wistar, brain, Male rats, 5 mg/kg s.c. 14 days, read-out: Brain concentration): 519 ng/g | concentration at 2 h ([7]; Wistar, brain, Male rats, 10 mg/kg s.c. 14 days, read-out: Brain concentration): 1380 ng/g | concentration at 2 h ([7]; Wistar, brain, Male rats, 15 mg/kg s.c. 14 days, read-out: Brain concentration): 1950 ng/g | concentration at 2 h ([7]; Wistar, brain, Male rats, 25 mg/kg s.c. 14 days, read-out: Brain concentration): 2580 ng/g | Kp at 2 h ([7]; Wistar, brain/plasma, Female rats, 5 mg/kg s.c. 14 days, read-out: Brain/plasma ratio): 7 | Kp at 2 h ([7]; Wistar, brain/plasma, Female rats, 10 mg/kg s.c. 14 days, read-out: Brain/plasma ratio): 7 | Kp at 2 h ([7]; Wistar, brain/plasma, Female rats, 15 mg/kg s.c. 14 days, read-out: Brain/plasma ratio): 6 | Kp at 2 h ([7]; Wistar, brain/plasma, Male rats, 5 mg/kg s.c. 14 days, read-out: Brain/plasma ratio): 7 | Kp at 2 h ([7]; Wistar, brain/plasma, Male rats, 10 mg/kg s.c. 14 days, read-out: Brain/plasma ratio): 6 | Kp at 2 h ([7]; Wistar, brain/plasma, Male rats, 15 mg/kg s.c. 14 days, read-out: Brain/plasma ratio): 5 | Kp at 2 h ([7]; Wistar, in vivo, Female rats, 5 mg/kg s.c. 14 days, read-out: Liver/plasma ratio): 5 | Kp at 2 h ([7]; Wistar, in vivo, Female rats, 10 mg/kg s.c. 14 days, read-out: Liver/plasma ratio): 5 | Kp at 2 h ([7]; Wistar, in vivo, Female rats, 15 mg/kg s.c. 14 days, read-out: Liver/plasma ratio): 5 | Kp at 2 h ([7]; Wistar, in vivo, Male rats, 5 mg/kg s.c. 14 days, read-out: Liver/plasma ratio): 3 | Kp at 2 h ([7]; Wistar, in vivo, Male rats, 10 mg/kg s.c. 14 days, read-out: Liver/plasma ratio): 3 | Kp at 2 h ([7]; Wistar, in vivo, Male rats, 15 mg/kg s.c. 14 days, read-out: Liver/plasma ratio): 2 | concentration at 2 h ([7]; Wistar, liver, Female rats, 5 mg/kg s.c. 14 days, read-out: Liver concentration): 319 ng/g | concentration at 2 h ([7]; Wistar, liver, Female rats, 10 mg/kg s.c. 14 days, read-out: Liver concentration): 738 ng/g | concentration at 2 h ([7]; Wistar, liver, Female rats, 15 mg/kg s.c. 14 days, read-out: Liver concentration): 1520 ng/g | concentration at 2 h ([7]; Wistar, liver, Male rats, 5 mg/kg s.c. 14 days, read-out: Liver concentration): 259 ng/g | concentration at 2 h ([7]; Wistar, liver, Male rats, 10 mg/kg s.c. 14 days, read-out: Liver concentration): 737 ng/g | concentration at 2 h ([7]; Wistar, liver, Male rats, 15 mg/kg s.c. 14 days, read-out: Liver concentration): 921 ng/g | concentration at 2 h ([7]; Wistar, plasma, Female rats, 5 mg/kg s.c. 14 days, read-out: Plasma concentration): 67 ng/mL | concentration at 2 h ([7]; Wistar, plasma, Female rats, 10 mg/kg s.c. 14 days, read-out: Plasma concentration): 149 ng/mL | concentration at 2 h ([7]; Wistar, plasma, Female rats, 15 mg/kg s.c. 14 days, read-out: Plasma concentration): 281 ng/mL | concentration at 2 h ([7]; Wistar, plasma, Male rats, 5 mg/kg s.c. 14 days, read-out: Plasma concentration): 77 ng/mL | concentration at 2 h ([7]; Wistar, plasma, Male rats, 10 mg/kg s.c. 14 days, read-out: Plasma concentration): 242 ng/mL | concentration at 2 h ([7]; Wistar, plasma, Male rats, 15 mg/kg s.c. 14 days, read-out: Plasma concentration): 398 ng/mL | Kp at 2 h ([7]; brain/plasma, Female rats, 25 mg/kg s.c. 14 days, read-out: Brain/plasma ratio): 5 | Kp at 2 h ([7]; brain/plasma, Male rats, 25 mg/kg s.c. 14 days, read-out: Brain/plasma ratio): 5 | Kp at 2 h ([7]; in vivo, Female rats, 25 mg/kg s.c. 14 days, read-out: Liver/plasma ratio): 6 | Kp at 2 h ([7]; in vivo, Male rats, 25 mg/kg s.c. 14 days, read-out: Liver/plasma ratio): 3 | concentration at 2 h ([7]; liver, Female rats, 25 mg/kg s.c. 14 days, read-out: Liver concentration): 2310 ng/g | concentration at 2 h ([7]; liver, Male rats, 25 mg/kg s.c. 14 days, read-out: Liver concentration): 1560 ng/g | concentration at 2 h ([7]; plasma, Female rats, 25 mg/kg s.c. 14 days, read-out: Plasma concentration): 412 ng/mL | concentration at 2 h ([7]; plasma, Male rats, 25 mg/kg s.c. 14 days, read-out: Plasma concentration): 512 ng/mL | Linearity of kinetics after repeat dosing ([7]; rats, 5-25 mg/kg s.c. 14 days, 5% glucose): slight tendency to supra-linear kinetics | IC50 [8]: > 100000 nM | Vd ([9]; intravenous, 2.5 mg/kg): 5.6 L/kg | clearance ([9]; intravenous, 2.5 mg/kg): 137 mL/min/kg | AUC(0-inf) ([9]; iv, 2.5 mg/kg): 306 ng·h/mL | half-life ([9]; iv, 2.5 mg/kg): 0.8 h | bioavailability ([9]; oral, 5 mg/kg): 3% | AUC(0-inf) ([9]; po, 5 mg/kg): 17 ng·h/mL | Cmax ([9]; po, 5 mg/kg): 8 ng/mL | Tmax ([9]; po, 5 mg/kg): 0.5 h | IC50 [10]: 85 nM | IC50 [11]: 1.8 nM | Ki [11]: 2 nM | Human transporter ratio ([11]; 5-HT (reference = 1)): 1
